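Cultured in 96-well plates, cells were exposed to test compound for 48 hours across five concentrations. TGI: total growth inhibition.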
Experiments:
Assay in all cases: NCI tumour cell line growth inhibition, 48 h
[1] = tested on: A498 renal
[2] = tested on: A549 NSCLC
[3] = tested on: CAKI-1 renal
[4] = tested on: CCRF-CEM leukemia
[5] = tested on: COLO 205 colon
[6] = tested on: DLD-1 colon
[7] = tested on: DMS 114 small cell lung
[8] = tested on: DMS 273 small cell lung
[9] = tested on: EKVX NSCLC
[10] = tested on: HCC-2998 colon
[11] = tested on: HCT-116 colon
[12] = tested on: HCT-15 colon
[13] = tested on: HL-60(TB) leukemia
[14] = tested on: HOP-18 NSCLC
[15] = tested on: HOP-62 NSCLC
[16] = tested on: HOP-92 NSCLC
[17] = tested on: HT29 colon
[18] = tested on: IGROV1 ovarian
[19] = tested on: KM12 colon
[20] = tested on: KM20L2 colon
[21] = tested on: LOX IMVI melanoma
[22] = tested on: MALME-3M melanoma
[23] = tested on: MCF7 breast
[24] = tested on: MOLT-4 leukemia
[25] = tested on: NCI-H226 lung
[26] = tested on: NCI-H23 lung
[27] = tested on: NCI-H460 lung
[28] = tested on: NCI-H522 lung
[29] = tested on: NCI/ADR-RES ovarian
[30] = tested on: OVCAR-3 ovarian
[31] = tested on: OVCAR-4 ovarian
[32] = tested on: OVCAR-5 ovarian
[33] = tested on: OVCAR-8 ovarian
[34] = tested on: RPMI-8226 leukemia
[35] = tested on: RXF 393 renal
[36] = tested on: SF-268 CNS
[37] = tested on: SF-295 CNS
[38] = tested on: SF-539 CNS
[39] = tested on: SK-MEL-2 melanoma
[40] = tested on: SK-MEL-28 melanoma
[41] = tested on: SK-MEL-5 melanoma
[42] = tested on: SK-OV-3 ovarian
[43] = tested on: SN12C renal
[44] = tested on: SN12K1 renal
[45] = tested on: SNB-19 CNS
[46] = tested on: SNB-75 CNS
[47] = tested on: SNB-78 CNS
[48] = tested on: SW-620 colon
[49] = tested on: U251 CNS
[50] = tested on: UACC-257 melanoma
[51] = tested on: UACC-62 melanoma
[52] = tested on: UO-31 renal
[53] = tested on: XF 498 CNS
[54] = tested on: K-562 leukemia
[55] = tested on: M19-MEL melanoma
[56] = tested on: P388 leukemia
[57] = tested on: P388/ADR leukemia

Compound: CN(C)CCN=C1c2ccccc2-c2c(=O)n(CCN(C)C)c(O)c3cccc1c23
- TGI [1]: 2190 nM
- TGI [2]: 461 nM
- TGI [3]: 2700 nM
- TGI [4]: 10500 nM
- TGI [5]: 270 nM
- TGI [6]: 217 nM
- TGI [7]: 499 nM
- TGI [8]: 508 nM
- TGI [9]: 987 nM
- TGI [10]: 494 nM
- TGI [11]: 432 nM
- TGI [12]: 245 nM
- TGI [13]: 592 nM
- TGI [14]: 603 nM
- TGI [15]: 4040 nM
- TGI [16]: 563 nM
- TGI [17]: 257 nM
- TGI [18]: 616 nM
- TGI [19]: 1250 nM
- TGI [20]: 783 nM
- TGI [21]: 185 nM
- TGI [22]: 1600 nM
- TGI [23]: 944 nM
- TGI [24]: 28000 nM
- TGI [25]: 3350 nM
- TGI [26]: 258 nM
- TGI [27]: 339 nM
- TGI [28]: 315 nM
- TGI [29]: 289 nM
- TGI [30]: 689 nM
- TGI [31]: 154 nM
- TGI [32]: 794 nM
- TGI [33]: 433 nM
- TGI [34]: 12900 nM
- TGI [35]: 85 nM
- TGI [36]: 578 nM
- TGI [37]: 605 nM
- TGI [38]: 1820 nM
- TGI [39]: 857 nM
- TGI [40]: 862 nM
- TGI [41]: 1950 nM
- TGI [42]: 1400 nM
- TGI [43]: 674 nM
- TGI [44]: 851 nM
- TGI [45]: 1730 nM
- TGI [46]: 487 nM
- TGI [47]: 1730 nM
- TGI [48]: 493 nM
- TGI [49]: 752 nM
- TGI [50]: 1250 nM
- TGI [51]: 734 nM
- TGI [52]: 3970 nM
- TGI [53]: 922 nM

Compound: Nc1nc2[nH]c(=O)cnc2c(=O)[nH]1
- TGI [1]: > 125000 nM
- TGI [2]: > 125000 nM
- TGI [3]: > 125000 nM
- TGI [4]: > 125000 nM
- TGI [5]: > 125000 nM
- TGI [6]: > 125000 nM
- TGI [7]: > 125000 nM
- TGI [8]: > 125000 nM
- TGI [9]: > 125000 nM
- TGI [10]: > 125000 nM
- TGI [11]: > 125000 nM
- TGI [12]: > 78900 nM
- TGI [13]: > 125000 nM
- TGI [14]: > 5800 nM
- TGI [15]: > 125000 nM
- TGI [16]: > 125000 nM
- TGI [17]: > 125000 nM
- TGI [18]: > 125000 nM
- TGI [54]: > 125000 nM
- TGI [19]: > 125000 nM
- TGI [20]: > 91400 nM
- TGI [21]: > 125000 nM
- TGI [55]: > 85200 nM
- TGI [22]: > 125000 nM
- TGI [23]: > 125000 nM
- TGI [24]: > 125000 nM
- TGI [25]: > 125000 nM
- TGI [26]: > 125000 nM
- TGI [27]: > 125000 nM
- TGI [28]: > 19800 nM
- TGI [29]: > 125000 nM
- TGI [30]: > 125000 nM
- TGI [31]: > 125000 nM
- TGI [32]: > 107000 nM
- TGI [33]: > 125000 nM
- TGI [56]: > 125000 nM
- TGI [57]: > 125000 nM
- TGI [34]: > 125000 nM
- TGI [35]: > 125000 nM
- TGI [36]: > 125000 nM
- TGI [37]: > 125000 nM
- TGI [38]: > 125000 nM
- TGI [39]: > 125000 nM
- TGI [40]: > 125000 nM
- TGI [41]: > 125000 nM
- TGI [42]: > 125000 nM
- TGI [43]: > 125000 nM
- TGI [44]: > 125000 nM
- TGI [45]: > 125000 nM
- TGI [46]: > 125000 nM
- TGI [47]: > 125000 nM
- TGI [48]: > 125000 nM
- TGI [49]: > 125000 nM
- TGI [50]: > 125000 nM
- TGI [51]: > 125000 nM
- TGI [52]: > 125000 nM
- TGI [53]: > 125000 nM

— PubChem BioAssay (NCI)
